According to ChEMBL document CHEMBL1128865, “A systematic study of P1P3 spanning sidechains for the inhibition of HIV-1 protease” (Bioorg Med Chem Lett, 1995):

The molecules below were run on CCRF-CEM (assay: Concentration required for inhibitory activity against CEM cells in a whole cell assay.). Conditions: Homo sapiens, read-out: ED50 (the source's name).
Assay type: functional
For `CC(C)(C)NC(=O)c1ccccc1C[C@@H](O)[C@H](Cc1ccccc1)NC(=O)[C@H](CC(N)=O)NC(=O)c1ccc2ccccc2n1`, the EC50 was 23 nM.

These molecules were tested against Human immunodeficiency virus type 1 protease (Human immunodeficiency virus 1, UniProt Q72874) (assay: Inhibitory activity against HIV-1 protease). Conditions: not given.
`CC(=O)N[C@@H](CC(N)=O)C(=O)N[C@@H](CSc1ccccc1)[C@H](O)Cc1ccccc1C(=O)NC(C)(C)C` showed an IC50 of 19 nM.
With `CC(C)(C)NC(=O)c1ccccc1C[C@@H](O)[C@H](CSc1ccccc1)NC(=O)[C@H](CC(N)=O)NC(=O)OCc1ccccc1` the IC50 was 14 nM.
`CC(C)(C)NC(=O)[C@@H]1C[C@@H]2CCCC[C@@H]2CN1C[C@@H](O)[C@H](CSc1ccccc1)NC(=O)[C@H](CC(N)=O)NC(=O)c1ccc2ccccc2n1` gave an IC50 of 1.5 nM.
In the case of `CC(C)(C)NC(=O)c1ccccc1C[C@@H](O)[C@H](CSc1ccc2ccccc2c1)NC(=O)[C@H](CC(N)=O)NC(=O)c1ccc2ccccc2n1`, the IC50 is reported as < 0.25 nM.
With `CC(C)(C)NC(=O)c1ccccc1C[C@@H](O)[C@H](CSc1ccccc1)NC(=O)CCC(N)=O` the IC50 was > 150 nM.
For `CC(C)(C)NC(=O)c1ccccc1C[C@@H](O)[C@H](CSc1ccccc1)NC(=O)[C@H](CC(N)=O)NC(=O)c1ccc2ccccc2n1`, the IC50 was 1.1 nM.
In the case of `CC(C)(C)NC(=O)[C@@H]1C[C@@H]2CCCC[C@@H]2CN1C[C@@H](O)[C@H](CSc1ccc2ccccc2c1)NC(=O)[C@H](CC(N)=O)NC(=O)c1ccc2ccccc2n1`, the IC50 is reported as < 0.25 nM.
In the case of `CC(C)(C)NC(=O)c1ccccc1C[C@@H](O)[C@H](CSc1ccc2ccccc2c1)NC(=O)CCC(N)=O`, the IC50 is reported as > 80 nM.
Work on `CC(C)(C)NC(=O)c1ccccc1C[C@@H](O)[C@H](CSc1ccc2ccccc2c1)NC(=O)[C@H](CC(N)=O)NC(=O)OCc1ccccc1` yielded an IC50 of 1.5 nM.
Work on `CC(=O)N[C@@H](CC(N)=O)C(=O)N[C@@H](CSc1ccc2ccccc2c1)[C@H](O)Cc1ccccc1C(=O)NC(C)(C)C` yielded an IC50 of 1.1 nM.

Each molecule was assayed on CCRF-CEM (assay: Concentration required for inhibitory activity against CEM cells in a whole cell assay). Conditions: Homo sapiens, read-out: ED50 (the source's name).
Assay type: functional
For `CC(C)(C)NC(=O)[C@@H]1C[C@@H]2CCCC[C@@H]2CN1C[C@@H](O)[C@H](CSc1ccccc1)NC(=O)[C@H](CC(N)=O)NC(=O)c1ccc2ccccc2n1`, the EC50 was 1.3 nM.
In the case of `CC(C)(C)NC(=O)[C@@H]1C[C@@H]2CCCC[C@@H]2CN1C[C@@H](O)[C@H](Cc1ccccc1)NC(=O)[C@H](CC(N)=O)NC(=O)c1ccc2ccccc2n1`, the EC50 is reported as 1.5 nM.
Molecule `CC(C)(C)NC(=O)[C@@H]1C[C@@H]2CCCC[C@@H]2CN1C[C@@H](O)[C@H](CSc1ccc2ccccc2c1)NC(=O)[C@H](CC(N)=O)NC(=O)c1ccc2ccccc2n1` has an EC50 of 1.4 nM.
